Columns and labels:
[1] = system: s12_13_82 (DNA, aptamer) ATACCAGCTTATTCAATTCAGGGCGGTATGAGGCTCGATCAAGGTCGGAGCGAGAATTTTTTCGCGGAGTCGGCTGGATCAGATAGTAAGTGCAATCT; assay: ITC; details: 50 mM Na+, 3 mM Mg2+; BB: 20 mM Tris-acetate, pH 7.4, 25 °C
[2] = system: s12_13_82m7 (DNA, aptamer) GCGCGATCAAGGTCGGAGCGTTTTCGCGGAGTCGGCTGGATCGCGC; assay: ITC; details: 50 mM Na+, 3 mM Mg2+; BB: 20 mM Tris-acetate, pH 7.4, 25 °C
[3] = system: s11_Kana2 (DNA, aptamer) CACCTAATACGACTCACTATAGCGGATCCGAAGATGGGGGTTGAGGCTAAGCCGACCGTAAGTTGGGCCGTCTGGCTCGAACAAGCTTGC; assay: ITC; details: 50 mM Na acetate, 5 mM K+, 5 mM Mg2+; SB1: 20 mM Tris-acetate, pH 8.0, 25 °C; 20.8 μM aptamer, 300 μM KANA in syringe; KD above 200 μM undetectable
[4] = system: s21_K16 (DNA, aptamer) CGCATACCAGCTTAGTTCAGAATTCATTGGAGCGTGGCGTGGATGCCCGATGAACCGCCCCAGGGTGCAGATAGTAAGTGCAATCTCGGC; assay: ITC; details: 100 mM Na acetate, 2 mM Mg2+, 5 mM K+, 1 mM Ca2+; SB2: 20 mM Tris-acetate, pH 7.6, 25 °C; 30 μM aptamer, 350 μM KANA in syringe; KD above 300 μM undetectable
[5] = system: s25_Kana6-1 (DNA, aptamer) GACGACGAGGGCCTGAAACTTGCTGGAACGGTTAAAGTCGTC; assay: ITC; details: 300 mM Na acetate, 10 mM Mg2+, 5 mM K+; SB3: 50 mM MES-NaOH, pH 7.0, 25 °C
[6] = system: s25_Kana6-5 (DNA, aptamer) GACGACGCAGTTGGCTTAGCGTAGGTAAAGGTCGATGTCGTC; assay: ITC; details: 300 mM Na acetate, 10 mM Mg2+, 5 mM K+; SB3: 50 mM MES-NaOH, pH 7.0, 25 °C
[7] = system: s12_13_82m1 (DNA, aptamer) GATCAAGGTCGGAGCGAGAATTTTTTCGCGGAGTCGGCTGGATC; assay: ITC; details: 50 mM Na+, 3 mM Mg2+; BB: 20 mM Tris-acetate, pH 7.4, 25 °C
[8] = system: s12_13_82m2 (DNA, aptamer) GCGATCAAGGTCGGAGCGAGAATTTTTTCGCGGAGTCGGCTGGATCGC; assay: ITC; details: 50 mM Na+, 3 mM Mg2+; BB: 20 mM Tris-acetate, pH 7.4, 25 °C
[9] = system: s12_13_82m5 (DNA, aptamer) GCGATCAAGGTCGGAGCGAGTTCGCGGAGTCGGCTGGATCGC; assay: ITC; details: 50 mM Na+, 3 mM Mg2+; BB: 20 mM Tris-acetate, pH 7.4, 25 °C
[10] = system: s12_13_82m6 (DNA, aptamer) GCGCGATCAAGGTCGGAGCGCAGTTGCGGAGTCGGCTGGATCGCGC; assay: ITC; details: 50 mM Na+, 3 mM Mg2+; BB: 20 mM Tris-acetate, pH 7.4, 25 °C
[11] = system: s12_13_82m8 (DNA, aptamer) GCGATCAAGGTCGGAGCGTTTTCGCGAGTCGGCTGGATCGC; assay: ITC; details: 50 mM Na+, 3 mM Mg2+; BB: 20 mM Tris-acetate, pH 7.4, 25 °C
[12] = system: s12_13_82 (DNA, aptamer) ATACCAGCTTATTCAATTCAGGGCGGTATGAGGCTCGATCAAGGTCGGAGCGAGAATTTTTTCGCGGAGTCGGCTGGATCAGATAGTAAGTGCAATCT; assay: CD spectroscopy; details: 50 mM Na acetate, 3 mM Mg2+; BB: 20 mM Tris-acetate, pH 7.4, 25 °C; 2 μM aptamer, 20 μM KANA
[13] = system: s21_K16 (DNA, aptamer) CGCATACCAGCTTAGTTCAGAATTCATTGGAGCGTGGCGTGGATGCCCGATGAACCGCCCCAGGGTGCAGATAGTAAGTGCAATCTCGGC; assay: CD spectroscopy; details: 100 mM Na acetate, 2 mM Mg2+, 5 mM K+, 1 mM Ca2+; SB2: 20 mM Tris-acetate, pH 7.6, 25 °C; 2 μM aptamer, 20 μM KANA
[14] = system: s25_Kana6-1 (DNA, aptamer) GACGACGAGGGCCTGAAACTTGCTGGAACGGTTAAAGTCGTC; assay: CD spectroscopy; details: 300 mM Na acetate, 10 mM Mg2+, 5 mM K+; SB3: 50 mM MES-NaOH, pH 7.0, 25 °C; 2 μM aptamer, 20 μM KANA
[15] = system: s25_Kana6-5 (DNA, aptamer) GACGACGCAGTTGGCTTAGCGTAGGTAAAGGTCGATGTCGTC; assay: CD spectroscopy; details: 300 mM Na acetate, 10 mM Mg2+, 5 mM K+; SB3: 50 mM MES-NaOH, pH 7.0, 25 °C; 2 μM aptamer, 20 μM KANA

Row | binding [1] | binding [2] | binding [3] | KD [1] [mM] | binding [4] | KD [5] [nM] | KD [6] [nM] | KD [7] [nM] | KD [8] [mM] | KD [9] [mM] | KD [10] [mM] | KD [2] [mM] | KD [11] [mM] | binding [12] | binding [13] | binding [14] | binding [15] | Compound
1 | no | no |  |  |  |  |  |  |  |  |  |  |  |  |  |  |  | CN[C@@H]1[C@H](O[C@H]2[C@H](O[C@H]3[C@H](O)[C@@H](O)[C@H](N=C(N)N)[C@@H](O)[C@@H]3N=C(N)N)O[C@@H](C)[C@]2(O)C=O)O[C@@H](CO)[C@H](O)[C@H]1O
2 | no | no |  |  |  |  |  |  |  |  |  |  |  |  |  |  |  | NC[C@@H]1O[C@H](O[C@H]2[C@@H](O)[C@H](O[C@@H]3[C@@H](O)[C@H](N)C[C@H](N)[C@H]3O[C@H]3O[C@H](CN)[C@@H](O)[C@H](O)[C@H]3N)O[C@@H]2CO)[C@H](N)[C@@H](O)[C@@H]1O
3 |  |  | no | 0.00047 ± 4e-05 | no | 2230 ± 240 | 870 ± 40 | 96 ± 8.7 | 0.000101 ± 8e-06 | 0.000106 ± 8.7e-06 | 0.000519 ± 4.84e-05 | 0.000109 ± 1.49e-05 | 0.0022 ± 0.000352 | yes | no | yes | yes | NC[C@H]1O[C@H](O[C@H]2[C@H](O)[C@@H](O[C@H]3O[C@H](CO)[C@@H](O)[C@H](N)[C@H]3O)[C@H](N)C[C@@H]2N)[C@H](O)[C@@H](O)[C@@H]1O
